The values that follow come from patent publication US9802958B2, “Tetrahydro[1,8]naphthyridine sulfonamide and related compounds for use as agonists of RORy and the treatment of disease” (Lycera Corporation, priority 2012, dated 2017).

One experiment concerns the target T1, RORγ-LBD (Homo sapiens, UniProt P51449).
T1 construct: made in house; host or cells: SF9 insect cells, baculovirus; unpurified lysate used
T1 sequence (P51449 269-508 limits assumed): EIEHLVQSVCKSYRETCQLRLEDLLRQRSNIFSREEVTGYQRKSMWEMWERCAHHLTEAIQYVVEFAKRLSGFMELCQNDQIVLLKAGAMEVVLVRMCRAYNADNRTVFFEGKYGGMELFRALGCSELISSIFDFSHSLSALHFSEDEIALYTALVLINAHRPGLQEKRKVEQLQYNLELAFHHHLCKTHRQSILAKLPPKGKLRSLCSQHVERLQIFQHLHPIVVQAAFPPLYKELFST
The experiment is described as follows: RORγ-Ligand Binding Domain (LBD) TR-FRET Assay. The following applies: assay measuring EC50 values less than or equal to 20 μM. Format: biochemical. As to the method: Exemplary compounds from the above Examples were tested for ability to increase RORγ activity using a RORγ-Ligand Binding Domain (LBD) TR-FRET Assay. Assay procedures and results are described below.
Recombinant, HIS-tagged RORγ-LBD was expressed in SF9 cells using a baculovirus expression system. Cells were lysed and the lysate was used as a source for RORγ-LBD for the assay. A 1:80 dilution of RORγ-LBD lysate in assay buffer (25 mM HEPES pH 7.0, 100 mM NaCl, 0.01% Tween, 0.1% BSA) was prepared and 5 μL was added to each well (RORγ-LBD final concentration ˜3 nM). Control wells received lysate from SF9 cells not expressing RORγ-LBD.
Compounds to be tested were diluted to 100× final test concentration in DMSO and further diluted to 4× final test concentration using assay buffer to provide the test compound mixture. An aliquot (5 μL) of the test compound mixture was added to each well.
A 4× stock of biotinylated-LXXLL peptide from SRC1-2 (Biotin-[…]) was prepared in assay buffer and a 5 μL aliquot added to each well (450 nM final concentration). A 4× solution of europium tagged anti-HIS antibody (2 nM final concentration) and APC conjugated streptavidin (60 nM final concentration) were prepared and a 5 μL aliquot added to each well.
The final assay mixture was incubated for 4 hours to overnight, and the fluorescence signal was measured on an Envision plate reader: (Excitation filter=340 nm; APC emission=665 nm; Europium emission=615 nm; dichroic mirror=D400/D630; delay time=100 μs, integration time=200 μs).
EC50 values for test compounds were calculated from the quotient of the fluorescence signal at 665 nm divided by the fluorescence signal at 615 nm using GraphPad Prism software.
For `Cc1cccc(S(=O)(=O)N2CCOc3ccc(OC(C)c4ccccc4)nc32)c1` (stereo not drawn) [Compound 6], the “promotion of RORγ activity” value is on record as “No promotion of RORγ activity was detected”.

The same experiment, now with this note: increase of RORγ activity; recombinant HIS-tagged RORγ-LBD, biotinylated SRC1-2 LXXLL peptide.
As for `Cc1cccc(S(=O)(=O)N2CCOc3ccc(NC(=O)c4c(Cl)cccc4Cl)nc32)c1` [Compound 2, 2,6-Dichloro-N-[4-(toluene-3-sulfonyl)-3,4-dihydro-2H-pyrido[3,2-b][1,4]oxazin-6-yl]-benzamide], the EC50 was ≤ 15 µM.
On the same count and under the same terms, in the case of `Cc1cccc(S(=O)(=O)N2CCOc3ccc(OCc4ccccc4)nc32)c1` [Compound 4] it was ≤ 15 µM.
With `Cc1cccc(S(=O)(=O)N2CCOc3ccc(NC(=O)C(C)c4ccccc4)nc32)c1` (stereo not drawn) [Compound 3, 2-Phenyl-N-[4-(toluene-3-sulfonyl)-3,4-dihydro-2H-pyrido[3,2-b][1,4]oxazin-6-yl]-propionamide], the 50% effective concentration (EC50) was ≤ 15 µM.
The same measure, in the same setting: in the case of `O=C(Nc1ccc2c(n1)N(S(=O)(=O)c1ccc(F)cc1)CCC2)c1c(F)cccc1F` [Compound 1, 2,6-Difluoro-N-(8-(4-fluorobenzenesulfonyl)-5,6,7,8-tetrahydro[1,8]naphthyridin-2-yl)benzamide] it was ≤ 15 µM.
With `Cc1cccc(S(=O)(=O)N2CCOc3ccc(OCc4c(Cl)cccc4Cl)nc32)c1` [Compound 5], the EC50 is ≤ 15 µM.

Usually EC50 stands for the concentration at which the effect is half-maximal.
